Reference: PubChem BioAssay (NCI)
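Interpolation was linear, between the two tested concentrations surrounding the appropriate level; five concentrations were tested over 48 hours in 96-well plates. GI50 is the concentration that inhibits growth by half. Definition used: TGI = concentration required for complete inhibition of growth.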

Experiments:
Experiment in all cases: NCI anticancer screen, dose series, 48 h
KM20L2 colon = tested on: KM20L2 colon
SW-620 colon = tested on: SW-620 colon
SK-MEL-5 melanoma = tested on: SK-MEL-5 melanoma
LXFL 529 NSCLC = tested on: LXFL 529 NSCLC
IGROV1 ovarian = tested on: IGROV1 ovarian
SK-MEL-28 melanoma = tested on: SK-MEL-28 melanoma
ACHN renal = tested on: ACHN renal
MDA-MB-231 breast = tested on: MDA-MB-231 breast
NCI/ADR-RES ovarian = tested on: NCI/ADR-RES ovarian
DU-145 prostate = tested on: DU-145 prostate

Structure (SMILES) | TGI (KM20L2 colon) [µM] | TGI (SW-620 colon) [µM] | TGI (SK-MEL-5 melanoma) [µM] | TGI (LXFL 529 NSCLC) [µM] | TGI (IGROV1 ovarian) [µM] | TGI (SK-MEL-28 melanoma) [µM] | TGI (ACHN renal) [µM] | GI50 (SW-620 colon) [µM] | GI50 (MDA-MB-231 breast) [µM] | TGI (MDA-MB-231 breast) [µM] | GI50 (SK-MEL-5 melanoma) [µM] | GI50 (IGROV1 ovarian) [µM] | GI50 (SK-MEL-28 melanoma) [µM] | GI50 (ACHN renal) [µM] | GI50 (NCI/ADR-RES ovarian) [µM] | TGI (NCI/ADR-RES ovarian) [µM] | GI50 (DU-145 prostate) [µM] | TGI (DU-145 prostate) [µM]
Clc1ccc(CCn2cncn2)c(Cl)c1 | > 100 | > 100 | > 100 | > 100 | > 100 | > 100 | > 100 | – | – | – | – | – | – | – | – | – | – | –
Cn1c(-c2ccccc2)c/c(=N\NS(C)(=O)=O)c2cc(S(=O)(=O)O)ccc21 | > 100 | > 100 | > 100 | > 100 | > 100 | > 100 | > 100 | – | – | – | – | – | – | – | – | – | – | –
N#Cc1ccccc1/C=N/O | > 100 | > 51.8 | > 100 | > 100 | > 100 | > 100 | > 100 | – | – | – | – | – | – | – | – | – | – | –
O=c1[nH]c(C2CCCCC2)nc2cc(Cl)ccc12 | > 100 | > 100 | > 100 | > 100 | > 100 | > 100 | > 100 | – | – | – | – | – | – | – | – | – | – | –
FC(F)(F)c1ccccc1C=NC12CC3CC(CC(C3)C1)C2 | > 100 | > 100 | > 100 | – | > 100 | > 100 | > 100 | – | – | – | – | – | – | – | – | – | – | –
Cc1ccc(S(=O)(=O)NC(=O)Nc2nc(Cl)cc(Cl)n2)cc1 | > 100 | > 100 | > 100 | > 100 | > 100 | > 100 | > 100 | – | – | – | – | – | – | – | – | – | – | –
O=C(Cc1nc2ccccc2s1)NC12CC3CC(CC(C3)C1)C2 | > 100 | > 100 | – | > 100 | – | > 100 | > 100 | – | – | – | – | – | – | – | – | – | – | –
[O-][N+]1=C(c2ccccc2)COc2ccccc21 | > 100 | > 100 | > 100 | > 100 | > 100 | > 100 | > 100 | – | – | – | – | – | – | – | – | – | – | –
COc1cc([C@@H]2c3cc4c(cc3[C@@H](NC(=O)c3ccc([N+](=O)[O-])cc3)C3COC(=O)[C@@H]32)OCO4)cc(OC)c1O (stereo partly drawn) | 3.73 | 4.21 | 3.53 | > 100 | 3.44 | 89 | 1.58 | – | – | – | – | – | – | – | – | – | – | –
Cc1ccccc1C(C#N)/C(=N/NC(=O)C(=O)NN)C(=O)Nc1cccc(C(F)(F)F)c1 (stereo not drawn) | > 100 | > 100 | > 100 | > 100 | > 100 | > 100 | > 100 | – | – | – | – | – | – | – | – | – | – | –
O=C(Nc1ccc(Cl)cc1Cl)/C(Cl)=C1/Sc2ccccc2NC1=O | > 100 | > 100 | 45.8 | > 100 | > 100 | 75.7 | 78.9 | – | – | – | – | – | – | – | – | – | – | –
C=C1CCC2C(C)(CO)C(O)CCC2(C)C1CC(O)C1=CCOC1=O (stereo not drawn) | > 100 | 51.3 | > 100 | > 100 | > 100 | > 100 | > 100 | – | – | – | – | – | – | – | – | – | – | –
COC(=O)CCC(=O)C(C#N)c1ccc(Cl)cc1Cl (stereo not drawn) | > 100 | > 100 | – | > 100 | > 100 | > 100 | > 100 | – | – | – | – | – | – | – | – | – | – | –
C/C(CC(=O)Nc1ccc([N+](=O)[O-])cc1)=N/N=C(N)N | > 100 | > 100 | > 100 | > 100 | > 100 | > 100 | > 100 | – | – | – | – | – | – | – | – | – | – | –
Cc1cc2c(=O)cc(-c3ccc(C(=O)O)cc3)oc2c(C(=O)O)c1C | > 100 | > 100 | > 100 | > 100 | > 100 | > 100 | > 100 | – | – | – | – | – | – | – | – | – | – | –
O=C(CCc1cc(-c2ccco2)n(-c2ccc([N+](=O)[O-])cc2[N+](=O)[O-])n1)Nc1ccccc1 | > 100 | > 100 | > 100 | > 100 | > 100 | > 100 | > 100 | – | – | – | – | – | – | – | – | – | – | –
N=C(N)c1ccc(-c2ccc(-c3ccco3)o2)cc1F | – | 3.7 | 3.04 | – | 6.02 | 3.67 | 3.81 | 1.72 | 1.6 | 4.01 | 1.64 | 2.13 | 1.81 | 1.84 | 2.66 | 10.9 | 3.27 | 11.5
CC(=O)/C=C/c1ccc(N(C)Cc2ccc(C(C)(C)C)cc2)cc1 | – | 441 | 184 | – | – | 279 | 271 | 156 | 122 | 293 | 55.1 | 241 | 134 | 137 | 114 | 271 | 147 | 472
O=C(/C=C/c1ccc2c(c1)OCO2)c1ccccc(=O)c1O | – | > 100 | 23 | – | 41.8 | 90.4 | > 100 | – | – | > 100 | – | – | – | – | – | 14.2 | – | 46.7
CCOC(=O)c1c2c(n3cccc(F)c13)C(=O)c1ncccc1C2=O | – | 11.3 | 3.22 | – | 24.9 | 19.4 | 2.43 | 0.151 | 4.14 | 64.7 | 0.0994 | 1.6 | 0.486 | 0.0791 | 0.436 | 6.82 | 0.0761 | 2.84
